Assay results published in ChEMBL document CHEMBL3046493, “Alpha2-Adrenergic Receptors in Intestinal Epithelial Cells: Mechanisms of Signaling, Role, and Regulation” (Med Chem Res, 2004).

target: Nischarin (Rattus norvegicus, UniProt Q4G017); test: Binding affinity to I1 imidazoline binding site in Rattus norvegicus (rat) PC12 cells; type: cell-based, PC-12
Sequence (Q4G017 whole entry): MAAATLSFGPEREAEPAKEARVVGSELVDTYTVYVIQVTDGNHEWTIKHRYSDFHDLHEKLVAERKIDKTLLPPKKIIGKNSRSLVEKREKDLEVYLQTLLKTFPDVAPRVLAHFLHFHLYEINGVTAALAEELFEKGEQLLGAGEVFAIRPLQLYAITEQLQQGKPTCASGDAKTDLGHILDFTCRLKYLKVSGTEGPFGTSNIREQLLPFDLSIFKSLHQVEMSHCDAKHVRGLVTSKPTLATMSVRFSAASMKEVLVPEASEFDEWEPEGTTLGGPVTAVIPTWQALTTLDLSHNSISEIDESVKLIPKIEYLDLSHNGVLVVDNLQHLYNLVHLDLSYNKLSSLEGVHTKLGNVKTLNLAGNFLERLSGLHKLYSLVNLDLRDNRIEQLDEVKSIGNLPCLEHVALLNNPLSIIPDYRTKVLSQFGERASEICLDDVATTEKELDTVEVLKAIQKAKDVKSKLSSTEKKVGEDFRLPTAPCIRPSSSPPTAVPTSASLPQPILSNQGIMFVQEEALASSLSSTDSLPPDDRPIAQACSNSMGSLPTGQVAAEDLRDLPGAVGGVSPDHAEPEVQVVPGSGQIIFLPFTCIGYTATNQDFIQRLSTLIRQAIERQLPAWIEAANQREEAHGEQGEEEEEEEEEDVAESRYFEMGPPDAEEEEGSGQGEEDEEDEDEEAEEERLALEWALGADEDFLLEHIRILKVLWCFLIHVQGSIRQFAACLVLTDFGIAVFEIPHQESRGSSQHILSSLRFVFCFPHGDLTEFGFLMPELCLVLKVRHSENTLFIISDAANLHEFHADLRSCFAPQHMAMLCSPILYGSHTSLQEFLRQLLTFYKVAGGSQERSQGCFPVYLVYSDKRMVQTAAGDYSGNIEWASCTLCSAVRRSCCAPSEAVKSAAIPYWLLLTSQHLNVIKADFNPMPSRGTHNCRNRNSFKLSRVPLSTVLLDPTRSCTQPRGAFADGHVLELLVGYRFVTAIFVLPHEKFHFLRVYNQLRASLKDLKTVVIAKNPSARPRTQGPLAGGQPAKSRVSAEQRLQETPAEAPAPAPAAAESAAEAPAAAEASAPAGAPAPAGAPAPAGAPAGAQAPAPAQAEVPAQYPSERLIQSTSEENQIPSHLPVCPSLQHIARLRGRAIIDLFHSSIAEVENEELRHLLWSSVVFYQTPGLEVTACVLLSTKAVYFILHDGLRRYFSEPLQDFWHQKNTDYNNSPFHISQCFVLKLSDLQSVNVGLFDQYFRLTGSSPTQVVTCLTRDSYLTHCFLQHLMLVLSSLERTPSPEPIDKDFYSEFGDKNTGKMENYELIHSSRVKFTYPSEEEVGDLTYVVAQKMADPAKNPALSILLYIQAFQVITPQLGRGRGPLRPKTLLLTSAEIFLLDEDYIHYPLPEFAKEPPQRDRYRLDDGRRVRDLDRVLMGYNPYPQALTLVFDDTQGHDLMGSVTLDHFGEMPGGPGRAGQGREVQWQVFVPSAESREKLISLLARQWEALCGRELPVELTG

Compared with `c1ccc2cc(C3=NCCN3)ccc2c1` [BENAZOLINE], `c1ccc2c(CC3=NCCN3)cccc2c1` [NAPHAZOLINE] is 190-fold higher in Ki: 1.29 nM for the first, 245 nM for the second. The first binds more tightly here.

Going from `C1COC(NC(C2CC2)C2CC2)=N1` [RILMENIDINE] to `C1CN=C(NC(C2CC2)C2CC2)C1`, the Ki rises from 11.2 nM to 513 nM (46-fold). The first binds more tightly here.

First: c1ccc([C@@H]2C[C@H]2C2=NCCN2)cc1
Second: c1ccc([C@H]2C[C@@H]2C2=NCCN2)cc1
The Ki of the first is 30-fold higher: 347 nM for the first, 11.7 nM for the second. The second binds more tightly here.

Going from `c1ccc(-c2ccccc2NCC2=NCCN2)cc1` to `c1ccc(-c2ccccc2OCC2=NCCN2)cc1`, the Ki rises from 0.933 nM to 2.34 nM (2.5-fold).

First: C[C@H](Oc1ccccc1-c1ccccc1)C1=NCCN1
Second: C[C@@H](Oc1ccccc1-c1ccccc1)C1=NCCN1
The Ki of the first is 32-fold higher: 129 nM for the first, 3.98 nM for the second. The second binds more tightly here.

Compared with `Clc1cccc(Cl)c1N=C1NCCN1` [CLONIDINE], `Clc1cc(I)cc(Cl)c1N=C1NCCN1` [PI-CLONIDINE] is 3300-fold lower in Ki: 112 nM for the first, 0.0339 nM for the second.

Compared with `C[C@@H](CC1=NCCN1)c1ccccc1`, `C[C@H](CC1=NCCN1)c1ccccc1` is 12-fold lower in Ki: 7240 nM for the first, 589 nM for the second.

First: c1ccc(C2CC2)c(OCC2=NCCN2)c1 [CIRAZOLINE]
Second: c1ccc(NCC2=NCCN2)cc1 [PHENAMAZOLINE]
The Ki of the first is 3500-fold higher: 1740 nM for the first, 0.501 nM for the second. The second binds more tightly here.

`c1ccc(C(CC2=NCCN2)c2ccccc2)cc1` and `c1ccc(-c2ccccc2CCC2=NCCN2)cc1` are within 1.5-fold of each other in Ki: 3090 nM for the first, 3240 nM for the second.

Compared with `C(=C\c1ccccc1)/C1=NCCN1` [TRACIZOLINE], `c1ccc(CCC2=NCCN2)cc1` [PHENYZOLINE] is 200-fold higher in Ki: 18.6 nM for the first, 3720 nM for the second.

Work on `Clc1cccc2c1CN(NC1=NCCN1)C2` yielded a Ki of 6.92 nM.
